Conditions: solid form

CC(C)(C(=O)O)c1ccc(C(O)CCCN2CCC(C(O)(c3ccccc3)c3ccccc3)CC2)cc1.Cl (centres unmarked) [polymorph φ, 2-[4-[1-hydroxy-4-[4-(hydroxydiphenylmethyl)-1-piperidyl]-butyl]phenyl]-2-methylpropanoic acid]
deliquescence: not deliquescent | hygroscopicity: not hygroscopic
